# In PubChem BioAssay (NCI):
#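 GI50 is the concentration that inhibits growth by half. Definition used: TGI = concentration required for complete inhibition of growth.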
# What was measured:
# Experiment in all cases: DTP human tumour cell line panel, 384-well format
# 786-0 renal = test system: 786-0 renal
# A498 renal = test system: A498 renal
# A549 NSCLC = test system: A549 NSCLC
# ACHN renal = test system: ACHN renal
# BT-549 breast = test system: BT-549 breast
# CAKI-1 renal = test system: CAKI-1 renal
# CCRF-CEM leukemia = test system: CCRF-CEM leukemia
# COLO 205 colon = test system: COLO 205 colon
# DU-145 prostate = test system: DU-145 prostate
# EKVX NSCLC = test system: EKVX NSCLC
# HCC-2998 colon = test system: HCC-2998 colon
# HCT-116 colon = test system: HCT-116 colon
# HCT-15 colon = test system: HCT-15 colon
# HL-60(TB) leukemia = test system: HL-60(TB) leukemia
# HOP-62 NSCLC = test system: HOP-62 NSCLC
# HOP-92 NSCLC = test system: HOP-92 NSCLC
# HS 578T breast = test system: HS 578T breast
# HT29 colon = test system: HT29 colon
# IGROV1 ovarian = test system: IGROV1 ovarian
# K-562 leukemia = test system: K-562 leukemia
# KM12 colon = test system: KM12 colon
# LOX IMVI melanoma = test system: LOX IMVI melanoma
# M14 melanoma = test system: M14 melanoma
# MALME-3M melanoma = test system: MALME-3M melanoma
# MCF7 breast = test system: MCF7 breast
# MDA-MB-231 breast = test system: MDA-MB-231 breast
# MDA-MB-435 melanoma = test system: MDA-MB-435 melanoma
# MDA-MB-468 breast = test system: MDA-MB-468 breast
# MOLT-4 leukemia = test system: MOLT-4 leukemia
# NCI-H226 lung = test system: NCI-H226 lung
# NCI-H23 lung = test system: NCI-H23 lung
# NCI-H322M lung = test system: NCI-H322M lung
# NCI-H460 NSCLC = test system: NCI-H460 NSCLC
# NCI-H522 lung = test system: NCI-H522 lung
# NCI/ADR-RES ovarian = test system: NCI/ADR-RES ovarian
# OVCAR-3 ovarian = test system: OVCAR-3 ovarian
# OVCAR-4 ovarian = test system: OVCAR-4 ovarian
# OVCAR-8 ovarian = test system: OVCAR-8 ovarian
# PC-3 prostate = test system: PC-3 prostate
# RPMI-8226 leukemia = test system: RPMI-8226 leukemia
# RXF 393 renal = test system: RXF 393 renal
# SF-268 CNS = test system: SF-268 CNS
# SF-295 CNS = test system: SF-295 CNS
# SF-539 CNS = test system: SF-539 CNS
# SK-MEL-28 melanoma = test system: SK-MEL-28 melanoma
# SK-OV-3 ovarian = test system: SK-OV-3 ovarian
# SN12C renal = test system: SN12C renal
# SNB-19 CNS = test system: SNB-19 CNS
# SNB-75 CNS = test system: SNB-75 CNS
# SW-620 colon = test system: SW-620 colon
# T-47D breast = test system: T-47D breast
# TK-10 renal = test system: TK-10 renal
# U251 glioblastoma = test system: U251 glioblastoma
# UACC-62 melanoma = test system: UACC-62 melanoma
# UO-31 renal = test system: UO-31 renal
compound,measurement,setting,value
FC(F)(F)c1ccc(Nc2nc(-c3c(C(F)(F)F)nc4ccccn34)cs2)cc1,GI50,786-0 renal,32.7 nM
same,TGI,786-0 renal,1220 nM
same,GI50,A498 renal,32.7 nM
same,TGI,A498 renal,1240 nM
same,GI50,A549 NSCLC,61.9 nM
same,TGI,A549 NSCLC,3.74 µM
same,GI50,ACHN renal,88.9 nM
same,TGI,ACHN renal,3.19 µM
same,GI50,BT-549 breast,39.1 nM
same,TGI,BT-549 breast,1240 nM
same,GI50,CAKI-1 renal,26.4 nM
same,TGI,CAKI-1 renal,1850 nM
same,GI50,CCRF-CEM leukemia,19.6 nM
same,TGI,CCRF-CEM leukemia,36.9 nM
same,GI50,COLO 205 colon,26.5 nM
same,TGI,COLO 205 colon,67.1 nM
same,GI50,DU-145 prostate,32.8 nM
same,TGI,DU-145 prostate,1370 nM
same,GI50,EKVX NSCLC,43.2 nM
same,TGI,EKVX NSCLC,2390 nM
same,GI50,HCC-2998 colon,32.1 nM
same,TGI,HCC-2998 colon,375 nM
same,GI50,HCT-116 colon,32.8 nM
same,TGI,HCT-116 colon,1440 nM
same,GI50,HCT-15 colon,32.4 nM
same,TGI,HCT-15 colon,1320 nM
same,GI50,HL-60(TB) leukemia,14.7 nM
same,TGI,HL-60(TB) leukemia,28.4 nM
same,GI50,HOP-62 NSCLC,33.5 nM
same,TGI,HOP-62 NSCLC,1440 nM
same,GI50,HOP-92 NSCLC,41.1 nM
same,TGI,HOP-92 NSCLC,2970 nM
same,GI50,HS 578T breast,17.2 nM
same,TGI,HS 578T breast,37.5 nM
same,GI50,HT29 colon,23.8 nM
same,TGI,HT29 colon,52.5 nM
same,GI50,IGROV1 ovarian,73.2 nM
same,TGI,IGROV1 ovarian,7.33 µM
same,GI50,K-562 leukemia,27.6 nM
same,TGI,K-562 leukemia,89.8 nM
same,GI50,KM12 colon,24.4 nM
same,TGI,KM12 colon,1080 nM
same,GI50,LOX IMVI melanoma,48.4 nM
same,TGI,LOX IMVI melanoma,2210 nM
same,GI50,M14 melanoma,25.2 nM
same,TGI,M14 melanoma,88.5 nM
same,GI50,MALME-3M melanoma,32 nM
same,TGI,MALME-3M melanoma,6.49 µM
same,GI50,MCF7 breast,30.3 nM
same,TGI,MCF7 breast,1450 nM
same,GI50,MDA-MB-231 breast,52.4 nM
same,TGI,MDA-MB-231 breast,4.69 µM
same,GI50,MDA-MB-435 melanoma,12.8 nM
same,TGI,MDA-MB-435 melanoma,33.2 nM
same,GI50,MDA-MB-468 breast,161 nM
same,TGI,MDA-MB-468 breast,310 nM
same,GI50,MOLT-4 leukemia,18.9 nM
same,TGI,MOLT-4 leukemia,37.4 nM
same,GI50,NCI-H226 lung,30.2 nM
same,TGI,NCI-H226 lung,86.7 nM
same,GI50,NCI-H23 lung,26.4 nM
same,TGI,NCI-H23 lung,89.6 nM
same,GI50,NCI-H322M lung,50.4 nM
same,TGI,NCI-H322M lung,2560 nM
same,GI50,NCI-H460 NSCLC,30.2 nM
same,TGI,NCI-H460 NSCLC,83.3 nM
same,GI50,NCI-H522 lung,16.7 nM
same,TGI,NCI-H522 lung,36.6 nM
same,GI50,NCI/ADR-RES ovarian,19.5 nM
same,TGI,NCI/ADR-RES ovarian,42.4 nM
same,GI50,OVCAR-3 ovarian,16.6 nM
same,TGI,OVCAR-3 ovarian,39.1 nM
same,GI50,OVCAR-4 ovarian,1000 nM
same,TGI,OVCAR-4 ovarian,4.46 µM
same,GI50,OVCAR-8 ovarian,35.7 nM
same,TGI,OVCAR-8 ovarian,1150 nM
same,GI50,PC-3 prostate,32.6 nM
same,TGI,PC-3 prostate,1820 nM
same,GI50,RPMI-8226 leukemia,18.3 nM
same,TGI,RPMI-8226 leukemia,36.8 nM
same,GI50,RXF 393 renal,13.4 nM
same,TGI,RXF 393 renal,42.8 nM
same,GI50,SF-268 CNS,35.4 nM
same,TGI,SF-268 CNS,1430 nM
same,GI50,SF-295 CNS,32.1 nM
same,TGI,SF-295 CNS,356 nM
same,GI50,SF-539 CNS,35.7 nM
same,TGI,SF-539 CNS,179 nM
same,GI50,SK-MEL-28 melanoma,52.1 nM
same,TGI,SK-MEL-28 melanoma,5.08 µM
same,GI50,SK-OV-3 ovarian,34.8 nM
same,TGI,SK-OV-3 ovarian,1660 nM
same,GI50,SN12C renal,38.6 nM
same,TGI,SN12C renal,2400 nM
same,GI50,SNB-19 CNS,47.1 nM
same,TGI,SNB-19 CNS,1960 nM
same,GI50,SNB-75 CNS,22.1 nM
same,TGI,SNB-75 CNS,78.7 nM
same,GI50,SW-620 colon,33.9 nM
same,TGI,SW-620 colon,2600 nM
same,GI50,T-47D breast,28.9 nM
same,TGI,T-47D breast,3.23 µM
same,GI50,TK-10 renal,69.3 nM
same,TGI,TK-10 renal,5.31 µM
same,GI50,U251 glioblastoma,42.4 nM
same,TGI,U251 glioblastoma,1490 nM
same,GI50,UACC-62 melanoma,27.5 nM
same,TGI,UACC-62 melanoma,1590 nM
same,GI50,UO-31 renal,42.2 nM
same,TGI,UO-31 renal,3.42 µM
